According to patent publication US20150105252A1, “SUBSTITUTED PYRAZOLES AS HERBICIDES” (E I DU PONT DE NEMOURS AND COMPANY, priority 2013, published 2015):

Key:
Conditions in all cases: scale 0 to 100
pigweed = test: Test D postemergence; assay type: in vivo, Amaranthus retroflexus
Outline: (§1)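 Preemergence: seeds sown in silt loam soil and sprayed with test chemical in non-phytotoxic solvent mixture with surfactant. Postemergence: plants grown in peat/vermiculite medium, sprayed at 2–18 cm (1- to 4-leaf stage). Visual rating versus untreated controls after 14–21 days, 0 (no effect) to 100 (complete control).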

windgrass [1] = test: Test D postemergence; assay type: in vivo, Apera spica-venti
Outline: as §1

mustard, wild = test: Test D preemergence; assay type: in vivo, Sinapis arvensis
Outline: as §1

bluegrass = test: Test D postemergence; assay type: in vivo, Poa annua
Outline: as §1

field poppy = test: Test D postemergence; assay type: in vivo, Papaver rhoeas
Outline: as §1

deadnettle [2] = test: Test D postemergence; assay type: in vivo, Lamium amplexicaule
Outline: as §1

windgrass [3] = test: Test D preemergence; assay type: in vivo, Apera spica-venti
Outline: as §1

deadnettle [4] = test: Test D preemergence; assay type: in vivo, Lamium amplexicaule
Outline: as §1

oat, wild = test: Test D postemergence; assay type: in vivo, Avena fatua
Outline: as §1

buckwheat, wild = test: Test D preemergence; assay type: in vivo, Polygonum convolvulus
Outline: as §1

blackgrass = test: Test D preemergence; assay type: in vivo, Alopecurus myosuroides
Outline: as §1

galium = test: Test D preemergence; assay type: in vivo, Galium aparine
Outline: as §1

field violet = test: Test D preemergence; assay type: in vivo, Viola arvensis
Outline: as §1

barley, winter = test: Test D postemergence; assay type: in vivo, Hordeum vulgare
Outline: as §1

barley, spring = test: Test D postemergence; assay type: in vivo, Hordeum vulgare
Outline: as §1

bromegrass, downy = test: Test D preemergence; assay type: in vivo, Bromus tectorum
Outline: as §1

Compound: CCOc1cc(C(=O)NC2CC2)nn1Cc1ccnc(C(F)(F)F)c1 [Compound 189]
- Pigweed plant response rating (pigweed; Postemergence, 31 g ai/ha): 70
- Pigweed plant response rating (pigweed; Postemergence, 125 g ai/ha): 70
- Pigweed plant response rating (pigweed; Postemergence, 250 g ai/ha): 75
- Pigweed plant response rating (pigweed; postemergence, 62 g ai/ha): 70
- Windgrass plant response rating (windgrass [1]; Postemergence, 31 g ai/ha): 15
- Windgrass plant response rating (windgrass [1]; Postemergence, 125 g ai/ha): 20
- Windgrass plant response rating (windgrass [1]; Postemergence, 250 g ai/ha): 35
- Windgrass plant response rating (windgrass [1]; postemergence, 62 g ai/ha): 15
- Plant response rating, Mustard, Wild (mustard, wild; 62 g ai/ha): 100
- Plant response rating, Mustard, Wild (mustard, wild; 125 g ai/ha): 100
- Plant response rating, Mustard, Wild (mustard, wild; 250 g ai/ha): 100
- Bluegrass plant response rating (bluegrass; Postemergence, 31 g ai/ha): 15
- Bluegrass plant response rating (bluegrass; Postemergence, 125 g ai/ha): 15
- Bluegrass plant response rating (bluegrass; Postemergence, 250 g ai/ha): 30
- Bluegrass plant response rating (bluegrass; postemergence, 62 g ai/ha): 15
- Field Poppy plant response rating (field poppy; Postemergence, 31 g ai/ha): 55
- Field Poppy plant response rating (field poppy; Postemergence, 125 g ai/ha): 75
- Field Poppy plant response rating (field poppy; Postemergence, 250 g ai/ha): 75
- Field Poppy plant response rating (field poppy; postemergence, 62 g ai/ha): 55
- Deadnettle plant response rating (deadnettle [2]; Postemergence, 31 g ai/ha): 45
- Deadnettle plant response rating (deadnettle [2]; Postemergence, 125 g ai/ha): 55
- Deadnettle plant response rating (deadnettle [2]; Postemergence, 250 g ai/ha): 75
- Deadnettle plant response rating (deadnettle [2]; postemergence, 62 g ai/ha): 45
- Plant response rating, Windgrass (windgrass [3]; 62 g ai/ha): 65
- Plant response rating, Windgrass (windgrass [3]; 125 g ai/ha): 100
- Plant response rating, Windgrass (windgrass [3]; 250 g ai/ha): 100
- Plant response rating, Deadnettle (deadnettle [4]; 31 g ai/ha): 90
- Plant response rating, Deadnettle (deadnettle [4]; 62 g ai/ha): 100
- Plant response rating, Deadnettle (deadnettle [4]; 125 g ai/ha): 100
- Plant response rating, Deadnettle (deadnettle [4]; 250 g ai/ha): 100
- Oat, Wild plant response rating (oat, wild; Postemergence, 31 g ai/ha): 20
- Oat, Wild plant response rating (oat, wild; Postemergence, 125 g ai/ha): 30
- Oat, Wild plant response rating (oat, wild; Postemergence, 250 g ai/ha): 35
- Oat, Wild plant response rating (oat, wild; postemergence, 62 g ai/ha): 20
- Plant response rating, Buckwheat, Wild (buckwheat, wild; 31 g ai/ha): 100
- Plant response rating, Buckwheat, Wild (buckwheat, wild; 62 g ai/ha): 100
- Plant response rating, Buckwheat, Wild (buckwheat, wild; 125 g ai/ha): 100
- Plant response rating, Buckwheat, Wild (buckwheat, wild; 250 g ai/ha): 100
- Plant response rating, Blackgrass (blackgrass; 31 g ai/ha): 35
- Plant response rating, Blackgrass (blackgrass; 62 g ai/ha): 60
- Plant response rating, Blackgrass (blackgrass; 125 g ai/ha): 80
- Plant response rating, Blackgrass (blackgrass; 250 g ai/ha): 100
- Plant response rating, Galium (galium; 62 g ai/ha): 75
- Plant response rating, Galium (galium; 125 g ai/ha): 70
- Plant response rating, Galium (galium; 250 g ai/ha): 100
- Plant response rating, Field Violet (field violet; 62 g ai/ha): 100
- Plant response rating, Field Violet (field violet; 125 g ai/ha): 100
- Plant response rating, Field Violet (field violet; 250 g ai/ha): 100
- Barley, Winter plant response rating (barley, winter; Postemergence, 31 g ai/ha): 15
- Barley, Winter plant response rating (barley, winter; Postemergence, 125 g ai/ha): 20
- Barley, Winter plant response rating (barley, winter; Postemergence, 250 g ai/ha): 20
- Barley, Winter plant response rating (barley, winter; postemergence, 62 g ai/ha): 15
- Barley, Spring plant response rating (barley, spring; Postemergence, 31 g ai/ha): 10
- Barley, Spring plant response rating (barley, spring; Postemergence, 125 g ai/ha): 15
- Barley, Spring plant response rating (barley, spring; Postemergence, 250 g ai/ha): 25
- Barley, Spring plant response rating (barley, spring; postemergence, 62 g ai/ha): 10
- Plant response rating, Bromegrass, Downy (bromegrass, downy; 31 g ai/ha): 0
- Plant response rating, Bromegrass, Downy (bromegrass, downy; 62 g ai/ha): 15
- Plant response rating, Bromegrass, Downy (bromegrass, downy; 125 g ai/ha): 20
- Plant response rating, Bromegrass, Downy (bromegrass, downy; 250 g ai/ha): 55
